Where “and” joins values, the source holds several entries; their conditions need not be identical. Equal values may be shown once.
Key:
[1] = tested on: Nfix exon 7; assay: Alternative splicing of Nfix exon 7 in muscle by RT-PCR (PSI, splice recovery); assay type: in vivo, mouse; settings: HSALR mice, individual mice; for Percentage spliced-in (PSI) Nfix Gast: 9.2 mg/kg (mean) i.v. x3, day 45, gastrocnemius; for Percentage spliced-in (PSI) Nfix Quads: 9.2 mg/kg (mean) i.v. x3, day 45, quadriceps
Description: Total RNA from murine gastrocnemius and quadriceps muscle was isolated using the miRNeasy Mini Kit (QIAGEN, Hilden, Germany) according to the manufacturer’s instructions. One microgram of RNA was digested with DNase I (Invitrogen, Carlsbad, CA) and reverse transcribed with SuperScript II (Invitrogen) using random hexanucleotides. For subsequent PCR reactions, 20 ng of cDNA was used with GoTaq polymerase (Promega). Specific primers were used to analyze the alternative splicing of Nfix, Atp2a1, and Clcn1 in mouse samples (both muscles). Gapdh levels established the endogenous reference levels using 0.2 ng of cDNA. PCR products were separated on a 2% agarose gel and quantified using ImageJ software (NIH, Bethesda, MD). PSR index was defined as value%SI minus X¯%DSI , divided by X¯%DSI minus X¯%HSI (SI, splicing inclusion of each sample; DSI, disease splicing inclusion; HSI, healthy splicing inclusion). Overall, PSR indicates the amount in both muscles analyzed. Primer sequences and exons analyzed are available in Cerro-Herreros et al.[20] In the case of off-targets, interleukins, and muscle regeneration marker Mstn-1, primers sequences are available in Table S5. We used 1 ng of mouse tissue cDNA as a template for multiplex qPCR using the QuantiFast Probe PCR Kit reagent. Commercial TaqMan probes (QIAGEN) were used for mouse (Mbnl1 and Mbnl2; FAM-labeled probes) and reference (GAPDH; MAX-labeled probe) genes. Results were normalized to Gapdh endogenous gene expression.
We used homozygous transgenic HSA^LR (line 20 b) mice,[90] which were kindly provided by Dr Thornton (Rochester, NY) and were housed and bred in our animal facility. Experimental groups were FVB as healthy control and HSA^LR treated with a scrambled ON (SC) and PBS as negative controls, and HSA^LR mice treated with all six experimental CPP-PMOs. The mice were randomly allocated to the different treatments as follows: in each cage, each mouse was ear-marked as it was taken out, and each mouse was then assigned to a different treatment. […] Mice were sacrificed 45 days after the first injection and the tissues of interest were frozen in liquid nitrogen for the molecular and histological assays. All the mice used in this study ranged from 5 to 5.5 months of age and all were males.

[2] = tested on: Mbnl1 protein; assay: Western blot of Mbnl1 in mouse muscle; assay type: in vivo; parameters: scale not given here; settings: HSALR mice, quadriceps, same value given for every mouse of a treatment group
Description: A 96-well plate QDB assay was used[87] to determine MBNL1 protein levels in all replicates and concentrations of each ON tested. This technique allows for high-throughput screening of low protein concentration samples over conventional western blot (WB) (Figure S9).[88] Cell samples (1 μg/well) and mice samples (2 μg/well) were prepared with 4× loading buffer, denatured (100°C for 5 min) and loaded in QDB plates (Quanticision Diagnostics, Research Triangle Park, NC). For the quantification of in vitro samples, the QDB was performed exactly as described in Moreno et al.[87] Each cell sample was loaded in quadruplicate in two different plates; one was used to detect MBNL1 (it was incubated overnight with primary mouse anti-MBNL1 [1:1,000, Abcam, ab77017]) and the other for GAPDH (it was incubated overnight with primary mouse anti-GAPDH [1:500, Santa Cruz, clone G-9]), which was used here as an endogenous control. For Mbnl1 quantification in mouse muscle tissues, we implemented the following modifications: each sample was loaded in quadruplicate on three different plates. One was used to detect Mbnl1 with a mouse MB1a(4A8) antibody (DSHB, Iowa City, IA) using a 1:200 dilution. A second plate was used to quantify tubulin (endogenous normalization control) with a mouse 12G10 antibody (DSHB) using a 1:1,000 dilution. A third plate was used to quantify IgG signal (negative control to subtract background) using an anti-mouse-IgG secondary antibody (Sigma-Aldrich) at 1:3,500 dilution. This subtraction was necessary due to an unspecific IgG signal could be observed in mouse samples (Figures S10A–S10D). All primary antibodies were detected using horseradish peroxidase-conjugated anti-mouse-IgG secondary antibody (1:5,000 for the anti-mouse plate, 1:2,000 for cell plates, and 1:3,500 for mouse plates [Sigma-Aldrich, MO]). Immunoreactive bands were detected using Pierce ECL Western reagent (Thermo Scientific), and luminescence levels were determined using an Infinite M200 PRO plate reader (Tecan). The validity of this correction for QDB quantification of mouse samples was confirmed by performing a series of experiments determining both the window of linearity of the assay (2–5 μg protein, Figures S10A–S10B) and the comparison with data obtained by WB in a subset of samples (Figures S10E–S10H), obtaining a correlation of 0.9927 for MBNL1 and 0.8678 for tubulin (in the case of quadriceps), and 0.9821 for MBNL1 and 0.9699 for tubulin (in gastrocnemius). For WB assay in quadriceps (Figure S10I), samples were loaded in pools of each treatment to have a representative WB of all the treatments tested. WB assay was performed as described previously.[20]

## 6aKC-23b (antisense GGUAAUCCCUGGCAAUGUGAU; all phosphorodiamidate morpholino (PMO), T or U not given here; Pip6aKC peptide conjugated)
[1]
  Percentage spliced-in (PSI) Nfix Gast: 63.59% and 47.55% and 61.79% and 62.43% and 69.22%
  Percentage spliced-in (PSI) Nfix Quads: 56.32% and 62.29% and 64.55% and 58.42% and 53.11%
[2]; western blot
  Mbnl1 Quads, WB assay: 1.13

## 6aKC-218 (antisense ACAUGGUUAGAUCAAGCACAA; all phosphorodiamidate morpholino (PMO), T or U not given here; Pip6aKC peptide conjugated)
[1]
  Percentage spliced-in (PSI) Nfix Gast: 68.36% and 70.85% and 73.58% and 51.68% and 74.79%
  Percentage spliced-in (PSI) Nfix Quads: 52.44% and 62.29% and 52.77% and 89.96% and 66.72%
[2]; protein
  Mbnl1 Quads, WB assay: 1.02

## 9b2-23b (antisense GGUAAUCCCUGGCAAUGUGAU; all phosphorodiamidate morpholino (PMO), T or U not given here; Pip9b2 peptide conjugated)
[1]
  Percentage spliced-in (PSI) Nfix Gast: 55.08% and 63.11% and 66.38% and 63.52% and 47.66%
  Percentage spliced-in (PSI) Nfix Quads: 15.30% and 54.78% and 4.40% and 48.44% and 23.44%
[2]; protein
  Mbnl1 Quads, WB assay: 1.46
[2]; western blot
  Mbnl1 Quads, WB assay: 1.46

## 9b2-218 (antisense ACAUGGUUAGAUCAAGCACAA; all phosphorodiamidate morpholino (PMO), T or U not given here; Pip9b2 peptide conjugated)
[1]
  Percentage spliced-in (PSI) Nfix Gast: 58.31% and 29.97% and 59.09% and 66.06% and 69.09%
  Percentage spliced-in (PSI) Nfix Quads: 30.95% and 10.51% and 43.26% and 15.39% and 35.59%
[2]; protein
  Mbnl1 Quads, WB assay: 1.58

## 9b2KC-23b (antisense GGUAAUCCCUGGCAAUGUGAU; all phosphorodiamidate morpholino (PMO), T or U not given here; Pip9b2KC peptide conjugated)
[1]
  Percentage spliced-in (PSI) Nfix Gast: 45.55% and 53.38% and 57.04% and 62.73% and 57.17%
  Percentage spliced-in (PSI) Nfix Quads: 54.10% and 56.90% and 66.58% and 51.62% and 56.46%
[2]; western blot
  Mbnl1 Quads, WB assay: 1.36

## 9b2KC-218 (antisense ACAUGGUUAGAUCAAGCACAA; all phosphorodiamidate morpholino (PMO), T or U not given here; Pip9b2KC peptide conjugated)
[1]
  Percentage spliced-in (PSI) Nfix Gast: 66.68% and 66.91% and 60.18% and 67.84% and 62.07%
  Percentage spliced-in (PSI) Nfix Quads: 48.85% and 67.46% and 51.19% and 51.94% and 21.60%
[2]; protein
  Mbnl1 Quads, WB assay: 1.44

## TCTTACCTCAGTTACAATTTA-Pip9b2 [Scramble, reference compound]
[1]
  Percentage spliced-in (PSI) Nfix Gast: 62.98% and 52.74% and 55.70% and 81.00% and 76.46%
  Percentage spliced-in (PSI) Nfix Quads: 60.30% and 80.52% and 66.59% and 72.38% and 72.49%
[2]; protein
  Mbnl1 Quads, WB assay: 1.00

— PMC10514136, “Peptide-conjugated antimiRs improve myotonic dystrophy type 1 phenotypes by promoting endogenous MBNL1 expression” (Molecular Therapy. Nucleic Acids, 2023)
